Key:
BVDV [1] = experiment: Single-detergent treatment of IVIG-containing liquid, BVDV inactivation; format: cell-based, bovine viral diarrhea virus; details: single detergent 0.1%±0.01%, 17°C±1°C, within 10 minutes
BVDV [2] = experiment: Single-detergent treatment of pdFVIII-containing liquid, BVDV inactivation; format: cell-based, bovine viral diarrhea virus; details: single detergent 0.1%±0.01%, 23°C±1°C, within 5 minutes
BVDV [3] = experiment: Single-detergent treatment of buffer containing HSA, BVDV inactivation; format: cell-based, bovine viral diarrhea virus; details: 14°C±1°C; for virus reduction factor (RF): single detergent 0.1%±0.01%, within 5 minutes; for inactivation kinetics compared with Triton X-100: FIG. 4A, single detergent 0.09%-0.11%
PRV = format: cell-based, pseudorabies virus; details: IVIG-containing liquid, 17°C±1°C
X-MuLV = experiment: S/D treatment of HSA-containing liquid, X-MuLV inactivation; format: cell-based, xenotropic murine leukemia virus; details: S/D mixture with PS80 and TnBP, 0.1% detergent
Protocol: FIG. 2: Virus inactivation efficiency of low concentrations of 4-tert-octylbenzyl alcohol polyethoxylate in S/D treatment of human serum albumin (HSA)-containing liquid at 1° C.±1° C. A three-component mixture was used to give final concentrations of 0.08%-0.1% 4-tert-octylbenzyl alcohol polyethoxylate, 0.02%-0.03% Polysorbate 80, 0.02%-0.03% TnBP (side-by-side comparison with same concentration of Triton X-100). Virus inactivation over time is indicated by the virus reduction factor (RF) for two runs with X-MuLV (A and B, respectively). Virus inactivation of S/D treatment using 4-tert-octylbenzyl alcohol polyethoxylate was compared to virus inactivation of S/D treatment using Triton X-100 (“TX-100”). Filled symbols show values with remaining infectivity, non-filled symbols show reduction factors below the limit of detection.
FIG. 3: Virus inactivation efficiency of low concentrations of 4-tert-octylbenzyl alcohol polyethoxylate in S/D treatment of HSA-containing liquid at 19° C.±1° C. A three-component mixture was used to give final concentrations of 0.08%-0.1% 4-tert-octylbenzyl alcohol polyethoxylate, 0.02%-0.03% Polysorbate 80, 0.02%-0.03% TnBP (side-by-side comparison with same concentration of Triton X-100). Virus inactivation over time is indicated by the virus reduction factor (RF) for two runs with X-MuLV (A and B, respectively). Virus inactivation of S/D treatment using 4-tert-octylbenzyl alcohol polyethoxylate was compared to virus inactivation of S/D treatment using Triton X-100 (“TX-100”). Filled symbols show values with remaining infectivity, non-filled symbols show reduction factors below the limit of detection.
The experiments were performed as described for Example 3 of WO 2019/086463. However, for the S/D treatment an S/D mixture comprising 4-tert-octylbenzyl alcohol polyethoxylate was tested and compared to an S/D mixture comprising Triton X-100. The composition of the S/D mixture comprising Triton X-100 was prepared as described in Example 3 of WO 2019/086463. […]

| Substance | virus reduction factor (RF) (BVDV [1]) | virus reduction factor (RF) (BVDV [2]) | virus reduction factor (RF) (BVDV [3]) | inactivation kinetics compared with Triton X-100 (PRV; FIG. 1A, S/D treatment, 0.04%-0.06% detergent) | virus reduction factor (RF) (PRV; S/D mixture with PS80 and TnBP, 0.05% w/w detergent, within 1-2 minutes) | virus reduction factor (RF) (X-MuLV; 1°C±1°C, within 10 minutes) | virus reduction factor (RF) (X-MuLV; 19°C±1°C, within 10 minutes) | virus reduction factor (RF) (X-MuLV; 19°C±1°C, within 30 min) | inactivation kinetics compared with Triton X-100 (BVDV [3]) |
| --- | --- | --- | --- | --- | --- | --- | --- | --- | --- |
| 4-(1,1,3,3-tetramethylbutyl)phenol, ethoxylated [Triton X-100] | around 5 | around 5 | around 5 | – | – | – | – | – | – |
| 4-tert-octylbenzyl alcohol polyethoxylate | around 5 | around 5 | around 5 | identical inactivation kinetics | around 4 | over 2 | over 2 | around 4 | same inactivation kinetics as Triton X-100 |
| 4-tert-octylcyclohexyl alcohol polyethoxylate [Triton X-100 reduced] | around 5 | around 5 | around 5 | – | – | – | – | – | same inactivation kinetics as Triton X-100 |
| n-hexadecyl alcohol polyethoxylate [Brij C10] | – | – | around 5 | – | – | – | – | – | – |

— patent US20240010590A1 (priority 2020, published 2024)
